Measured values as given in patent US12433908B2, “Use of nicotinamide riboside, nicotinic acid riboside, and nicotinamide mononucleotide, reduced nicotinyl compounds, and nicotinoyl compound derivatives in infant formula for healthy development” (ChromaDex, Inc., priority 2016, dated 2025).

Assay: CBC analysis of piglets given NR solution
Type: in vivo, piglets (Yorkshire/Hampshire crossbred)
Text: Sixteen (n=16) Yorkshire/Hampshire crossbred piglets were obtained from the University of California, Davis Swine Teaching and Research Center and received on lactation day (“LD”) 14. Prior to arrive, the piglets were processed by the suppler between 1-3 days of age by administration of iron and an antibiotic ([…] for swine) as is common practice at the University of California, Davis Swine Facility. It is not common practice at the University of California, Davis Swine Facility to give a second dose of iron and antibiotics unless it becomes necessary. The piglets were from two litters (litters 15 and 17), weaned at 17 days of age, and randomly placed into one of two groups balanced for litter, sex, and weight. The animals were not acclimated to the facility at arrival and were subsequently acclimated to the test diet administration system. The piglets were weaned into a temperature-controlled room (approximately 27-29° C.) that contained 10 adjacent pens. The piglets were group-housed in the nursery room at the Swine Facility, which is an enclosed room with access restricted to trained personnel. The two groups were separated by one pen containing piglets of similar age. Each morning enough nicotinamide riboside (NR, I) in water solution was prepared for that day's dose administration according to the dose preparation protocol. At least 5 mL of prepared dose was reserved and immediately frozen after preparation each day for analysis of nicotinamide riboside (NR, I) for the purpose of confirming stability of the dose material. The doses were stored at refrigeration temperature while not in use. Nicotinamide riboside (NR, I) was dosed once per day in the morning and at the same time each day. Piglets in the control group received the same volume of plain water and were dosed on the same schedule. Starting on Day 1, animals in the nicotinamide riboside (NR, I) group were dosed once daily (in the morning) with 277 mg nicotinamide riboside (NR, I) per pig resuspended in water for seven days. After one week, animals were dosed once daily with 342 mg nicotinamide riboside (NR, I) per pig delivered in 2.5 mL for seven days. For Days 1 and 2, the nicotinamide riboside (NR, I) solution was prepared by resuspending 2770 mg nicotinamide riboside (NR, I) in 50 mL water, and 5 mL of this solution was delivered to each pig by squirting it into the back of the mouth using a 10 mL syringe with a piece of tubing attached to the end. To reduce the volume to more efficiently deliver the nicotinamide riboside (NR, I) solution, the 2770 mg was resuspended in 25 mL water and 2.5 mL of the solution was squirted into the back of the mouth of each pig using a 3 mL syringe for Days 3-7. For Days 8-14, 3420 mg nicotinamide riboside (NR, I) was resuspended in 25 mL water and 2.5 mL of this solution was delivered to each pig. Each day prior to dosing, 2.5 mL of the nicotinamide riboside (NR, I) (5 mL on Days 1 and 2) were placed into a separate tube and frozen. Blood was collected from each pig via jugular venipuncture on Days 1, 8, and 14. In each instance, blood was collected prior to dosing with nicotinamide riboside (NR, I). On Day 1, the sow was removed from the piglets for approximately three hours prior to sample collection. On Days 8 and 14, feed was removed from the animals' pens 12 hours prior to sample collection. Blood was collected into purple-top vacutainers for CBC analysis and into red-top vacutainers for blood chemistry analysis. CBC analysis was performed at IDEXX Laboratories in West Sacramento, California using the Sysmex XT-iV Vet Hematology Autoanalyzer (Sysmex America Inc., Lincolnshire, Illinois). Red-top tubes were spun to collect serum and the serum frozen. Frozen aliquots (500 μL) were submitted to the University of California, Davis Veterinary medicine Teaching Hospital Clinical Diagnostic Laboratory for Blood Chemistry Analysis using the Cobas 6000 C501 Clinical Chemistry Analyzer (Roche Diagnostics, Indianapolis, IN). […]

[1] = Wk 1, 277 mg/pig once daily oral
[2] = Wk 2, 342 mg/pig once daily oral Days 8-14

Basophils, % (Baseline, before dosing): 0.57%
Basophils, count (Baseline, before dosing): 60 cells/μL
Eosinophils, % (Baseline, before dosing): 1.11%
Eosinophils, count (Baseline, before dosing): 108 cells/μL
HCT (Baseline, before dosing): 29.9%
HGB (Baseline, before dosing): 10.4 g/dL
Lymphocytes, % (Baseline, before dosing): 65.8%
Lymphocytes, count (Baseline, before dosing): 6.48 ×10^3 cells/μL
MCH (Baseline, before dosing): 16.0 pg
MCHC (Baseline, before dosing): 34.3 g/dL
MCV (Baseline, before dosing): 46.2 fL
Monocytes, % (Baseline, before dosing): 6.17%
Monocytes, count (Baseline, before dosing): 596 cells/μL
Neutrophil/Lymphocyte (Baseline, before dosing): 0.41
Neutrophils, % (Baseline, before dosing): 26.3%
Neutrophils, count (Baseline, before dosing): 2.47 ×10^3 cells/μL
RBC (Baseline, before dosing): 6.45 M/μL
WBC (Baseline, before dosing): 9.7 ×10^3 cells/μL
Basophils, % [1]: 0.49%
Basophils, count [1]: 68 cells/μL
Eosinophils, % [1]: 1.52%
Eosinophils, count [1]: 213 cells/μL
HCT [1]: 27.3%
HGB [1]: 9.4 g/dL
Lymphocytes, % [1]: 51.0%
Lymphocytes, count [1]: 6.34 ×10^3 cells/μL
MCH [1]: 15.4 pg
MCHC [1]: 34.7 g/dL
MCV [1]: 44.7 fL
Monocytes, % [1]: 6.01%
Monocytes, count [1]: 803 cells/μL
Neutrophil/Lymphocyte [1]: 0.85
Neutrophils, % [1]: 40.9%
Neutrophils, count [1]: 5.41 ×10^3 cells/μL
RBC [1]: 6.06 M/μL
WBC [1]: 12.8 ×10^3 cells/μL
Basophils, % [2]: 0.30%
Basophils, count [2]: 61 cells/μL
Eosinophils, % [2]: 1.07%
Eosinophils, count [2]: 179 cells/μL
HCT [2]: 26%
HGB [2]: 9.4 g/dL
Lymphocytes, % [2]: 54.9%
Lymphocytes, count [2]: 10.31 ×10^3 cells/μL
MCH [2]: 15.5 pg
MCHC [2]: 35.2 g/dL
MCV [2]: 44.2 fL
Monocytes, % [2]: 6.80%
Monocytes, count [2]: 1336 cells/μL
Neutrophil/Lymphocyte [2]: 0.73
Neutrophils, % [2]: 36.9%
Neutrophils, count [2]: 7.59 ×10^3 cells/μL
RBC [2]: 6.11 M/μL
WBC [2]: 19.5 ×10^3 cells/μL
CBC and serum chemistries, NR vs. control (baseline and weekly for the 2-week intervention): no statistically significant differences
Structure (SMILES): NC(=O)c1ccc[n+]([C@@H]2O[C@H](CO)[C@@H](O)[C@H]2O)c1 [NR, Nicotinamide riboside]
